In patent US10815264B2, “Nucleotides for the treatment of cancer” (IDENIX PHARMACEUTICALS LLC, priority 2015, dated 2020):

Test system: live leukemic cells of AML patient samples (bone marrow or peripheral blood)
Assay: Ex-vivo effect on AML patient samples, depletion of live leukemic cells by flow cytometry
Assay type: cell-based, human
Conditions: plates incubated for 48 hours
Experimental: Patient samples were obtained from a non-interventional and prospective study. The study included samples from adult patients over 18 years of age who were diagnosed with Acute Myeloid Leukemia (AML).
In one embodiment, the method of data acquisition was performed as follows: on day 1 bone marrow (BM) or peripheral blood (PB) patient sample was received. A small part was separated from the rest of the sample for validation, while the majority of the sample was diluted with culture media and plated into 96-well plates previously prepared with the desired compounds and compound combinations, e.g., a compound or compound combination described herein. The number of live leukemic cells seeded in each well was fixed between 8000 and 32000, depending on the percentage of leukemic cells for each sample. […] Antibodies were added to identify leukemic cells using a gating strategy based on FSC/SSC and expression or lack of expression of different surface markers. The monoclonal antibodies selection was performed to optimize the identification of leukemic cell in each sample.
In one embodiment, non-limiting examples of biomarkers such as the biomarkers CD34, CD45, CD117, and HLADR known as “backbone markers” for AML (van Dongen, J. J. and A. Orfao, EuroFlow: Resetting leukemia and lymphoma immunophenotyping. Basis for companion diagnostics and personalized medicine, Leukemia, 2012, 26, 1899-907) were included in the combination.
In one embodiment, antibody combinations such as CD117/CD45, CD34/CD45, and HLADR/CD45 were used. Live leukemic cells were identified by their light scatter properties (FSC^int/hi/SSC^int) in the absence of Annexin-V-FITC staining. FSC/SSC selection was performed to exclude debris. The average percentage of cell viability upon receipt of the sample was 80% and samples were only processed if the viability was greater than 50%.
In one embodiment, sample validation was performed as follows: BM and PB samples were extracted under sterile conditions and received in the laboratory within 24 hours of extraction. Initial analysis evaluated the number of pathological cells and their viability. Different volumes of sample (1 μL, 3 μL, 5 μL and 7 μL) were aliquoted in duplicate into a 96-well plate. To lyse red blood cells, 180 μL of ammonium chloride lysis solution was added to each well (2 g KHCO3, 16.58 g NH4Cl, 0.074 g Na2EDTA.2H2O, H2O to 1 L). Following a 10 min incubation period at 4° C., plate was centrifuged for 5 min at 1200 rpm and the supernatant removed. The lysis step was performed twice. To analyze, 20 μL of a combination of Annexin V-FITC (Immunostep, Salamanca, Spain), binding buffer (BB, 2.4 g HEPES, 8.19 g NaCl, 0.37 g Cl2Ca, H2O to 1 L), and the following monoclonal antibodies (mAb) were added to each well: CD117 (clone 104D2)-PE (Becton Dickinson, San Jose, Calif., US), CD34 (clone 581)-PerCP (BioLegend, San Diego, Calif., US), HLADR (clone L243)-PB (BioLegend) and CD45 (HI30)-PO (Life Technologies, Carlsbad, Calif., US) (van Dongen, J. J., et al., EuroFlow antibody panels for standardized n-dimensional flow cytometric immunophenotyping of normal, reactive and malignant leukocytes, Leukemia, 2012, 26, 1908-75). After 15 min of incubation at room temperature in the dark, a wash step was performed using binding buffer solution. The pellet was resuspended in 30 μL BB for analysis in Vivia's ExviTech© platform. Cell count and viability upon arrival were computed and the optimal volume of sample to use per well was determined.
In one embodiment, the assay was performed according to following method: the whole sample was diluted with RPMI 1640, supplemented with 20% (v/v) FBS (Thermo Scientific, Waltham, Mass., US), 2% HEPES, 1% antibiotic (Zell Shield, Labclinics, Barcelona, Spain) and 1% L-glutamine 200 mM (Lonza, Hopkinton, Mass., US) to a final volume of 60 μL per well. […]

SMILES | EC50 (Homo sapiens, 48 h) [µM] | Emax (Homo sapiens, 48 h) [%] | EC50 [µM] | Emax (%) | Emax (Homo sapiens) [%]
Nc1ccn([C@@H]2S[C@H](COP(=O)(O)NCc3ccccc3)[C@@H](O)[C@@H]2O)c(=O)n1 [drawing 49] | 1 to 10 | 10 to 20 |  |  | 
CC(C)OC(=O)[C@H](C)NP(=O)(OC[C@H]1S[C@@H](n2ccc(N)nc2=O)[C@@H](O)[C@@H]1O)Oc1ccccc1 (single isomer, unassigned) [drawing 48] |  |  | 10 to 20 | A (A=0-10%) | 
CC(C)OC(=O)[C@H](C)NP(=O)(OC[C@H]1S[C@@H](n2ccc(N)nc2=O)[C@@H](O)[C@@H]1O)Oc1ccccc1 (single isomer, unassigned) [drawing 47] | ≥ 20 |  |  |  | 0 to 10
Nc1ccn([C@@H]2S[C@H](COP(=O)(NCc3ccccc3)OCc3ccc([N+](=O)[O-])o3)[C@@H](O)[C@@H]2O)c(=O)n1 (single isomer, unassigned) [drawing 52] |  | 0 to 10 | 10 to 20 |  | 
COC(=O)COP(=O)(N[C@@H](CC(C)C)C(=O)OC)OC[C@H]1S[C@@H](n2ccc(N)nc2=O)[C@@H](O)[C@@H]1O (single isomer, unassigned) [drawing 54] | 1 to 10 | 0 to 10 |  |  | 
CCOC(=O)COP(=O)(N[C@@H](CC(C)C)C(=O)OCC)OC[C@H]1S[C@@H](n2ccc(N)nc2=O)[C@@H](O)[C@@H]1O (single isomer, unassigned) [drawing 50] |  |  | 10 to 20 |  | 
Nc1ccn([C@@H]2S[C@H](COP(=O)(NCc3ccccc3)OCc3ccc([N+](=O)[O-])o3)[C@@H](O)[C@@H]2O)c(=O)n1 (single isomer, unassigned) [drawing 53] |  |  | 1 to 10 | A (A=0-10%) | 
COC(=O)COP(=O)(N[C@@H](CC(C)C)C(=O)OC)OC[C@H]1S[C@@H](n2ccc(N)nc2=O)[C@@H](O)[C@@H]1O (single isomer, unassigned) [drawing 55] |  |  | 1 to 10 |  | 
